According to patent US10010574B2, “Silk peptide for improving neuroprotective and neurofunctional effects and a method of its preparation” (BRAINGUARD CO., LTD., priority 2004, dated 2018):

Test system: depression animal model
Test: Forced swimming test (depression animal model)
Assay type: in vivo, Sprague Dawley rats
Details: P<0.05
Protocol: Four Sprague Dawley rats (140-180 g, Dae Han BioLink Co., Korea) each box were placed under constant condition (temperature: 25±1° C., relative humidity: 60±10%), and fed with unlimited water and food for 1 week. Fifty rats were selected for experiment among the rats by excluding ones that were undeveloped, show less motion or abnormal behavior in forced swimming test.
As a standard method for behavioral despair test, a forced swimming test (FST) was used in this experiment, which is known as principal test for verify anti-depression efficacy.
A rat was placed for 15 minutes in a transparent cylindrical water tank with 40 cm of height and 18 cm of diameter, which was filled with 15 cm deep water. […] The immobilization state typically refers to a state that a rat pushes only its head above the surface and was in a minimum motion for keeping itself afloat. After forced swimming test, the rat was dried at 37° C. for 30 minutes and returned to the box.
After 24 hours, the second forced swimming was performed for 5 minutes under the same condition with the first forced swimming test, and total immobilization time was measured. […] The immobilization time was measured by recording total process of the forced swimming and comparing between the control group and the experiment group. Values measured by 3 different analyzers were averaged and used as an analysis data. […]

Question: With CN(C)CCCN1c2ccccc2CCc2ccccc21 [imipramine] as the molecule, how does the “Average immobilization time, 7-day repeated administration” value (oral one time a day for 7 days, FIG. 23) read?
Answer: significantly decreased

Question: And the “Average immobilization time, one time urgent administration” value (silk peptide 1 g/kg oral, imipramine 20 mg/kg, 1 hour before second forced swimming, FIG. 22)?
Answer: significantly decreased
